Each structure is given as a SMILES string.

The target in the assay is T1, CRTh2 receptor (Homo sapiens, UniProt Q9Y5Y4).
T1 construct: expressed in transfected cells; host or cells: CHO.K1 cells (membranes)
T1 sequence (Q9Y5Y4 1-395): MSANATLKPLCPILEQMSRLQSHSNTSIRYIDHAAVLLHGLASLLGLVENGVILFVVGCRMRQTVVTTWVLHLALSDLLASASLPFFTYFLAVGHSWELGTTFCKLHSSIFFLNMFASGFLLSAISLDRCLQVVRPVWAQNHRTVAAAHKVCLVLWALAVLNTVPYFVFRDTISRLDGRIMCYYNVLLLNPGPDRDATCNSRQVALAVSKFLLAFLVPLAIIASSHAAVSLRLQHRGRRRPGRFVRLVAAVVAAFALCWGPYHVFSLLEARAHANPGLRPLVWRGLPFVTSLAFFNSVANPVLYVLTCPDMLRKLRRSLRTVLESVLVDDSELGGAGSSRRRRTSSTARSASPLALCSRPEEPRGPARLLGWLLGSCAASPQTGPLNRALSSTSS
The experiment in a line: CRTh2 GTPγS antagonism binding assay. In kind it is biochemical. The conditions noted are these: membranes from CHO.K1 cells stably overexpressing the CRTh2 receptor; [35S]-GTPγS 0.1 nM; PGD2 at 50 nM (EC80); compound pre-incubated 1 h; read-out: GTPγ Binding. The method, then:
CRTh2 GTPγS antagonism binding assay
The assay is performed using membranes obtained from CHO.K1 cells stably overexpressing the CRTh2 receptor and [^35S]-GTPγS as radioligand. Assay is performed pre-incubating 4-8 µg of membranes per well with the compound to be tested for 1 h, followed by incubation with PGD2 at 50 nM (EC80), 0.1 nM [^35S]-GTPγS in incubation buffer (20 mM HEPES, 10 mM MgCl2, 100 mM NaCl, 10 µM GDP, 10 µg/ml Saponine and 0.2% BSA) for 2 h at room temperature. The reaction is terminated by filtering in GF/C plates pre-treated with 20 mM HEPES, 10 mM MgCl2, 100 mM NaCl and washing 6 times with wash buffer (20 mM NaH2PO4, 20 mM Na2HPO4). After washing, plates are dried and scintillation buffer Optiphase added. The radioactivity retained in the filter is counted using a Microbeta liquid scintillation counter.

As for `Cc1nn(-c2cccc(NC(=O)[C@@H]3C[C@H]3c3ccccc3)c2)c(C)c1CC(=O)O` (relative stereo) [Example 1, {3,5-Dimethyl-1-[3-({[trans-2-phenylcyclopropyl]carbonyl}amino)phenyl]-1H-pyrazol-4-yl}acetic acid], the IC50 was found to be 250 nM.

`Cc1ccc(NC(=O)Nc2cccc(Cn3nc(C)c(CC(=O)O)c3C)c2)cc1` [Example 4, {3,5-Dimethyl-1-[3-({[(4-methylphenyl)amino]carbonyl}amino)benzyl]-1H-pyrazol-4-yl}acetic acid]: the IC50 worked out at 370 nM.

Consider `Cc1nn(Cc2ccccc2S(=O)(=O)c2ccccc2)c(C)c1CC(=O)O` [Example 13, {3,5-Dimethyl-1-[2-(phenylsulfonyl)benzyl]-1H-pyrazol-4-yl}acetic acid], for which the IC50 worked out at 86 nM.

Regarding `Cc1c(CC(=O)O)c(-c2ccccc2)nn1Cc1ccccc1S(=O)(=O)c1ccccc1` [Example 15, {5-Methyl-3-phenyl-1-[2-(phenylsulfonyl)benzyl]-1H-pyrazol-4-yl}acetic acid], the IC50 was found to be 6.8 nM.

For the compound `Cc1c(CC(=O)O)c(-c2ccccc2)nn1Cc1ccccc1S(=O)(=O)N1CCOCC1` [Example 23, {5-Methyl-1-[2-(morpholin-4-ylsulfonyl)benzyl]-3-phenyl-1H-pyrazol-4-yl}acetic acid], the IC50 was determined as 74 nM.

Regarding `Cc1c(CC(=O)O)c(-c2ccccc2)nn1Cc1ccccc1Cc1ccccc1` [Example 24, [1-(2-Benzylbenzyl)-5-methyl-3-phenyl-1H-pyrazol-4-yl]acetic acid], the IC50 turned out to be 105 nM.

For `Cc1c(CC(=O)O)c(-c2ccc(Cl)cc2)nn1Cc1ccccc1S(=O)(=O)N1CCOCC1` [Example 25, {3-(4-Chlorophenyl)-5-methyl-1-[2-(morpholin-4-ylsulfonyl)benzyl]-1H-pyrazol-4-yl}acetic acid], the IC50 came to 94 nM.

As for `Cc1c(CC(=O)O)c(-c2ccc(Cl)cc2)nn1Cc1ccccc1S(=O)(=O)c1ccccc1` [Example 26, {3-(4-Chlorophenyl)-5-methyl-1-[2-(phenylsulfonyl)benzyl]-1H-pyrazol-4-yl}acetic acid], the IC50 was 24 nM.

For `Cc1c(CC(=O)O)c(=O)[nH]n1Cc1ccccc1S(=O)(=O)c1ccccc1` [Example 29, {3-Hydroxy-5-methyl-1-[2-(phenylsulfonyl)benzyl]-1H-pyrazol-4-yl}acetic acid], the IC50 stood at 160 nM.

`Cc1c(CC(=O)O)c(-c2ccccc2)nn1Cc1ccccc1S(=O)(=O)N1CCCCC1` [Example 30, {5-Methyl-3-phenyl-1-[2-(piperidin-1-ylsulfonyl)benzyl]-1H-pyrazol-4-yl}acetic acid]: the IC50 amounted to 66 nM.

These data come from patent EP2457900A1, “New pyrazole derivatives having CRTh2 antagonistic behaviour” (Almirall, S.A., priority 2010, dated 2012).
